In patent publication US20240391926A1, “SPIROINDOLINONE COMPOUNDS AS Kv1.3 POTASSIUM SHAKER CHANNEL BLOCKERS” (D.E. Shaw Research, LLC, priority 2021, published 2024) one finds IC50 data, which are given here for 33 compounds.

SMILES strings stand for the structures. Some results are limits rather than exact numbers.

T1 sequence (P22001 whole entry): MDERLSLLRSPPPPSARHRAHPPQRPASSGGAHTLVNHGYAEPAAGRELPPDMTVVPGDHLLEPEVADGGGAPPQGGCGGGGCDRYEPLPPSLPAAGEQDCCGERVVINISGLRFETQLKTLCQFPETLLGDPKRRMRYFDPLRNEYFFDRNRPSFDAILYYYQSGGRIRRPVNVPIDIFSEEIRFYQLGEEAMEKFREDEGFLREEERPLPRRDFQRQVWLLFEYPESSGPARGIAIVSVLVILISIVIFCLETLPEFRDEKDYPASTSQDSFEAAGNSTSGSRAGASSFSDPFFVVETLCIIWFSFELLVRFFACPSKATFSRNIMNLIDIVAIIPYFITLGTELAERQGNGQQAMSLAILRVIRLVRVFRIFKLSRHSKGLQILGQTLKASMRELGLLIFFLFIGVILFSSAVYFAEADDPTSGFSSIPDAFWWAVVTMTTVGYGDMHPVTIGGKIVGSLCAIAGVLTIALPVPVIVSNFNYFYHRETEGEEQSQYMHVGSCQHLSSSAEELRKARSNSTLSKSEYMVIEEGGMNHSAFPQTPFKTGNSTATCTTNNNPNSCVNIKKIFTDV

This experiment has as its target T1, Kv1.3 potassium channel (Homo sapiens, UniProt P22001).
T1 construct: expressed in transfected cells
As to the kind of experiment: Kv1.3 potassium channel blocker activity, automated whole-cell patch clamp (Patchliner) in CHO-K1 cells stably expressing Kv1.3. In kind it is cell-based. The note with it: 30 nM-100 μM. The protocol: This assay is used to evaluate the disclosed compounds' activities as Kv1.3 potassium channel blockers.
CHO-K1 cells stably expressing Kv1.3 were grown in DMEM containing 10% heat-inactivated FBS, 1 mM sodium pyruvate, 2 mM L-glutamine, and G418 (500 μg/ml). Cells were grown in culture flasks at 37° C. in a 5% CO2-humidified incubator.
The cells were bathed in an extracellular solution containing 140 mM NaCl, 4 mM KCl, 2 mM CaCl2), 1 mM MgCl2, 5 mM glucose, 10 mM HEPES; pH adjusted to 7.4 with NaOH; 295-305 mOsm. The internal solution contained 50 mM KCl, 10 mM NaCl, 60 mM KF, 20 mM EGTA, 10 mM HEPES; pH adjusted to 7.2 with KOH; 285 mOsm. All compounds were dissolved in DMSO at 30 mM. Compound stock solutions were freshly diluted with external solution to concentrations of 30 nM, 100 nM, 300 nM, 1 μM, 3 μM, 10 μM, 30 μM and 100 μM. The highest content of DMSO (0.3%) was present in 100 μM.
The currents were evoked by applying 100 ms depolarizing pulses from −90 mV (holding potential) to +40 mV were applied with 0.1 Hz frequency. Control (compound-free) and compound pulse trains for each compound concentration applied contained 20 pulses. 10-second breaks were used between pulse trains (see Table A below).
Whole-cell current recordings and compound application were enabled by means of an automated patch clamp platform Patchliner (Nanion Technologies GmbH). EPC 10 patch clamp amplifier (HEKA Elektronik Dr. Schulze GmbH) along with Patchmaster software (HEKA Elektronik Dr. Schulze GmbH) was used for data acquisition. Data were sampled at 10 kHz without filtering. Passive leak currents were subtracted online using a P/4 procedure (HEKA Elektronik Dr. Schulze GmbH). Increasing compound concentrations were applied consecutively to the same cell without washouts in between. Total compound incubation time before the next pulse train was not longer than 10 seconds. Peak current inhibition was observed during compound equilibration.
AUC and peak values were obtained with Patchmaster (HEKA Elektronik Dr. Schulze GmbH). To determine IC50, the last single pulse in the pulse train corresponding to a given compound concentration was used. Obtained AUC and peak values in the presence of compound were normalized to control values in the absence of compound. Using Origin (OridinLab), IC50 was derived from data fit to Hill equation: Icompound/Icontrol=(100−A)/(1+([compound]/IC50)nH)+A, where IC50 value is the concentration at which current inhibition is half-maximal, [compound] is the applied compound concentration, A is the fraction of current that is not blocked and nH is the Hill coefficient.
A general note: In patch-clamp work, channel activity is measured electrically.
Regarding `O=C([C@@H]1CC[C@@H](CO)C1)N1CC[C@]2(C1)C(=O)Nc1cc(Cl)c(Cl)cc12` (single isomer, unassigned; isomer 2) [Compound 100], the IC50 (usually the concentration at which inhibition is half-maximal) is less than 3 µM.

Turning to `CC[C@@H](O)C(=O)N1CC[C@]2(C1)C(=O)Nc1cc(Cl)c(Cl)cc12` [Compound 92, (S)-5,6-dichloro-1′-((R)-2-hydroxybutanoyl)spiro[indoline-3,3′-pyrrolidin]-2-one], the IC50 is less than 10 µM.

On to `NC[C@@H](O)C(=O)N1CC[C@]2(C1)C(=O)Nc1cc(Cl)c(Cl)cc12` [Compound 55, (S)-1′-((R)-3-amino-2-hydroxypropanoyl)-5,6-dichlorospiro[indoline-3,3′-pyrrolidin]-2-one], for which the IC50 was less than 1 µM.

`O=C(c1cnn(CCO)c1)N1CC[C@]2(C1)C(=O)Nc1cc(Cl)c(Cl)cc12` [Compound 78, (S)-5,6-dichloro-1′-(1-(2-hydroxyethyl)-1H-pyrazole-4-carbonyl)spiro[indoline-3,3′-pyrrolidin]-2-one] registered an IC50 of less than 10 µM.

For `C[C@@H](O)CC(=O)N1CC[C@]2(C1)C(=O)Nc1cc(Cl)c(Cl)cc12` [Compound 89, (S)-5,6-dichloro-1′-((R)-3-hydroxybutanoyl)spiro[indoline-3,3′-pyrrolidin]-2-one], the IC50 was less than 3 µM.

`O=C([C@@H]1CNC[C@@H]1O)N1CC[C@]2(C1)C(=O)Nc1cc(Cl)c(Cl)cc12` (single isomer, unassigned) [Compound 1] came in with an IC50 of less than 1 µM.

The compound `O=C([C@@H]1CCCN1)N1CC[C@]2(C1)C(=O)Nc1cc(Cl)c(Cl)cc12` [Compound 22, (S)-1′-(L-prolyl)-5,6-dichlorospiro[indoline-3,3′-pyrrolidin]-2-one] showed an IC50 of less than 1 µM.

`O=C([C@@H]1CC[C@@H](O)C1)N1CC[C@]2(C1)C(=O)Nc1cc(Cl)c(Cl)cc12` (single isomer, unassigned; isomer 2) [Compound 64]: the IC50 was less than 3 µM.

Regarding `O=C(CC1(O)CCC1)N1CC[C@]2(C1)C(=O)Nc1cc(Cl)c(Cl)cc12` [Compound 90, (S)-5,6-dichloro-1′-(2-(1-hydroxycyclobutyl)acetyl)spiro[indoline-3,3′-pyrrolidin]-2-one], the IC50 is less than 10 µM.

In turn, `O=C(N1CC[C@]2(C1)C(=O)Nc1cc(Cl)c(Cl)cc12)[C@]1(F)CCNC1` (single isomer, unassigned; isomer 1) [Compound 28] gave an IC50 of less than 1 µM.

For `O=C(CO)N1CC[C@@]2(C1)C(=O)Nc1cc(Cl)c(Br)cc12` [Compound 117, (R)-5-bromo-6-chloro-1′-(2-hydroxyacetyl)spiro[indoline-3,3′-pyrrolidin]-2-one], the IC50 was less than 10 µM.

Take `O=C(N1CC[C@]2(C1)C(=O)Nc1cc(Cl)c(Cl)cc12)[C@@]1(O)CCNC1` (single isomer, unassigned; isomer 2) [Compound 31]: the IC50 is less than 3 µM.

For the compound `O=C1Nc2cc(Cl)c(Cl)cc2[C@]12CCN(c1cnccn1)C2` [Compound 149, (S)-5,6-dichloro-1′-(pyrazin-2-yl)spiro[indoline-3,3′-pyrrolidin]-2-one], the IC50 is less than 3 µM.

The compound `Nc1nnc(N2CC[C@]3(C2)C(=O)Nc2cc(Cl)c(Cl)cc23)o1` [Compound 132, (S)-1′-(5-amino-1,3,4-oxadiazol-2-yl)-5,6-dichlorospiro[indoline-3,3′-pyrrolidin]-2-one] showed an IC50 of less than 3 µM.

`CS(=O)(=O)N1CC[C@]2(C1)C(=O)Nc1cc(Cl)c(Cl)cc12` [Compound 143] came in with an IC50 of less than 1 µM.

Take `O=C(C1C[C@H](O)[C@@H](O)C1)N1CC[C@]2(C1)C(=O)Nc1cc(Cl)c(Cl)cc12` (relative stereo) [Compound 106]: the IC50 was less than 1 µM.

Compound `CC(C)[C@H](N)C(=O)N1CC[C@]2(C1)C(=O)Nc1cc(Cl)c(Cl)cc12` [Compound 47, (S)-1′-(L-valyl)-5,6-dichlorospiro[indoline-3,3′-pyrrolidin]-2-one] had an IC50 of less than 3 µM.

In turn, `CC(C)C[C@@H](N)C(=O)N1CC[C@]2(C1)C(=O)Nc1cc(Cl)c(Cl)cc12` [Compound 44, (S)-1′-(D-leucyl)-5,6-dichlorospiro[indoline-3,3′-pyrrolidin]-2-one] came in with an IC50 of less than 3 µM.

Take `O=C(C1CNCC(F)(F)C1)N1CC[C@]2(C1)C(=O)Nc1cc(Cl)c(Cl)cc12` (stereo partly drawn) [Compound 50, (3S)-5,6-dichloro-1′-(5,5-difluoropiperidine-3-carbonyl)spiro[indoline-3,3′-pyrrolidin]-2-one]: the IC50 is less than 1 µM.

Regarding `O=C(CCO)N1CC[C@]2(C1)C(=O)Nc1cc(Cl)c(Cl)cc12` [Compound 156, (S)-5,6-dichloro-1′-(3-hydroxypropanoyl)spiro[indoline-3,3′-pyrrolidin]-2-one], the IC50 was less than 1 µM.

`O=C1Nc2cc(Cl)c(Cl)cc2[C@]12CCN(S(=O)(=O)CCO)C2` [Compound 138, (3S)-5,6-dichloro-1′-(2-hydroxyethanesulfonyl)-1H-spiro[indole-3,3′-pyrrolidin]-2-one] had an IC50 of less than 1 µM.

The compound `CC(=O)N1CC[C@]2(C1)C(=O)Nc1cc(Cl)c(Cl)cc12` [Compound 152, (S)-1′-acetyl-5,6-dichlorospiro[indoline-3,3′-pyrrolidin]-2-one] gave a concentration for half-maximal inhibition (IC50) of less than 1 µM.

Compound `CC[C@H](O)C(=O)N1CC[C@]2(C1)C(=O)Nc1cc(Cl)c(Cl)cc12` [Compound 91, (S)-5,6-dichloro-1′-((S)-2-hydroxybutanoyl)spiro[indoline-3,3′-pyrrolidin]-2-one] came in with an IC50 of less than 3 µM.

Compound `O=C1Nc2cc(Cl)c(Cl)cc2[C@]12CCN(C(=O)[C@H]1CC[C@@H](O)CC1)C2` [Compound 51, (S)-5,6-dichloro-1′-((1s,4R)-4-hydroxycyclohexane-1-carbonyl)spiro[indoline-3,3′-pyrrolidin]-2-one] gave an IC50 of less than 3 µM.

As to `Cc1cc2c(cc1Cl)[C@@]1(CCN(C(=O)CO)C1)C(=O)N2` [Compound 119, (R)-5-chloro-1′-(2-hydroxyacetyl)-6-methylspiro[indoline-3,3′-pyrrolidin]-2-one], the IC50 is less than 10 µM.

`C[C@H](O)C(=O)N1CC[C@]2(C1)C(=O)Nc1cc(Cl)c(Cl)cc12` [Compound 12, (S)-5,6-dichloro-1′-((S)-2-hydroxypropanoyl)spiro[indoline-3,3′-pyrrolidin]-2-one] registered an IC50 of less than 3 µM.

The compound `O=C([C@H]1CC[C@H](O)[C@@H](O)C1)N1CC[C@]2(C1)C(=O)Nc1cc(Cl)c(Cl)cc12` (single isomer, unassigned; isomer 2) [Compound 108] came in with an IC50 of less than 3 µM.

On to `Cn1cc(C(=O)N2CC[C@]3(C2)C(=O)Nc2cc(Cl)c(Cl)cc23)cn1` [Compound 69, (S)-5,6-dichloro-1′-(1-methyl-1H-pyrazole-4-carbonyl)spiro[indoline-3,3′-pyrrolidin]-2-one], for which the IC50 is less than 10 µM.

Compound `O=C(C(CO)CO)N1CC[C@]2(C1)C(=O)Nc1cc(Cl)c(Cl)cc12` [Compound 19, (S)-5,6-dichloro-1′-(3-hydroxy-2-(hydroxymethyl)propanoyl)spiro[indoline-3,3′-pyrrolidin]-2-one] returned an IC50 of less than 3 µM.

In the case of `O=C(C[C@H]1CCCN1)N1CC[C@]2(C1)C(=O)Nc1cc(Cl)c(Cl)cc12` [Compound 59, (S)-5,6-dichloro-1′-(2-((R)-pyrrolidin-2-yl)acetyl)spiro[indoline-3,3′-pyrrolidin]-2-one], the IC50 was less than 3 µM.

On to `O=C(c1nnc[nH]1)N1CC[C@]2(C1)C(=O)Nc1cc(Cl)c(Cl)cc12` [Compound 136, (S)-5,6-dichloro-1′-(1H-1,2,4-triazole-3-carbonyl)spiro[indoline-3,3′-pyrrolidin]-2-one], for which the IC50 was less than 1 µM.

`C[C@H]1N(C(=O)CO)CCC12C(=O)Nc1cc(Cl)c(Cl)cc12` (single isomer, unassigned; diastereoisomer 2) [Compound 134, 5,6-dichloro-1′-(2-hydroxyacetyl)-2′-methylspiro[indoline-3,3′-pyrrolidin]-2-one diastereoisomer 2] had an IC50 of less than 10 µM.

`O=C(C[C@H](O)CO)N1CC[C@]2(C1)C(=O)Nc1cc(Cl)c(Cl)cc12` [Compound 76, (S)-5,6-dichloro-1′-((S)-3,4-dihydroxybutanoyl)spiro[indoline-3,3′-pyrrolidin]-2-one] showed an IC50 of less than 3 µM.
